tested on: HaCaT (keratinocyte normal skin); assay: MTT cell proliferation assay, HaCaT; format: cell-based; details: Homo sapiens, 72 h incubation, 95% confidence interval in parentheses
Method: (§1) To use these S-glycosidic compounds in cellulo, the potential impact of the glycosidic linkage nature on the anticancer activity was assessed. The S-glycoside derivatives and the 7-MC were tested against four human cancer cell lines and a healthy one, namely A549 (lung carcinoma), HS-683 (glioma cancer), MCF-7 (breast adenocarcinoma), SK-MEL-28 (melanoma skin cancer), and HaCaT (keratinocyte normal skin), using MTT (thiazolyl blue tetrazolium bromide, Sigma-Aldrich, St. Louis, MO, USA) assay, as previously described in the literature. The selected reference drugs were 5-fluorouracil (5-FU) and etoposide.
(§2) Cell proliferation of five distinct cell lines was evaluated using the colorimetric MTT (thiazolyl blue tetrazolium bromide, Sigma) assay. Human keratinocyte normal skin HaCaT was cultivated in DMEM supplemented with 4.5 g/L glucose, 2 mM L-glutamine, and 10% FBS. Cancer cell lines and their respective growth media were obtained from CLS Cell Line Service GmbH (Eppelheim, Germany). Specifically, human skin melanoma SK-MEL-28 and human brain glioma HS683 were cultivated in DMEM with identical supplements as HaCaT cells. The human lung carcinoma cell line A-549 was grown in DMEM/Ham’s F12 (1:1) medium supplemented with 2 mM L-glutamine and 5% FBS. Additionally, human breast adenoma carcinoma MCF-7 cells were sustained in EMEM supplemented with 2 mM L-glutamine, sodium pyruvate, non-essential amino acids (NEAAs), 10 µg/mL insulin human, and 10% FBS. The MTT assay relies on the reduction of the yellow product thiazolyl blue tetrazolium bromide (MTT) to formazan, a purple-blue product, by mitochondrial dehydrogenases in metabolically active cells. The number of living cells after incubation in the presence (or absence, control) of the tested molecules is directly proportional to the blue color, which was measured by spectrophotometry. To perform the assay, cells were initially seeded at a density of 2500 cells/mL in 96-well culture plates (Nunc™ Edge 2.0, Fisher) and allowed to adhere and proliferate over a 24-hour incubation period. Following this, the cells were treated with various concentrations of the tested compounds, which were previously prepared as serial dilutions and dissolved in 0.1% DMSO. These stable solutions guarantee the consistency of experimental conditions over extended periods. Each concentration of the tested compounds underwent triplicate testing (n = 3), and cells were subsequently incubated for 72 h to allow for thorough evaluation. Following this incubation period, MTT reagent (5 mg/mL solution in PBS) was introduced to each well (10% v/v), and cells were further incubated for 4 h. Then, the culture medium was carefully removed, and the resulting blue formazan crystals were dissolved in 100 µL of 100% DMSO. Absorbance readings were taken at 540 nm, referencing a wavelength of 620 nm, using a spectrophotometer. In determining the IC50, the absorbance of serial dilutions of each cell line, treated under identical conditions but without the presence of the tested compounds, was measured.

Compound	IC50
Cc1cc(=O)oc2cc(S[C@@H]3O[C@H](CO)[C@H](O)[C@H](O)[C@H]3O)ccc12 [Compound S-4, 4-Methylumbellifer-7-yl 1-thio-β-D-galactopyranoside]	> 1 mM
Cc1cc(=O)oc2cc(S[C@@H]3O[C@H](C)[C@H](O)[C@H](O)[C@H]3O)ccc12 [Compound S-5, 4-Methylumbellifer-7-yl 1-thio-β-D-fucopyranoside]	> 1 mM
Cc1cc(=O)oc2cc(S[C@H]3O[C@H](CO)[C@H](O)[C@H](O)[C@H]3O)ccc12 [Compound S-6, 4-Methylumbellifer-7-yl 1-thio-α-D-galactopyranoside]	> 1 mM

tested on: HS683 (brain glioma); assay: MTT cell proliferation assay, HS683; format: cell-based; details: Homo sapiens, Hs 683, 72 h incubation, 95% confidence interval in parentheses
Method: as §1, §2

Compound	IC50
Cc1cc(=O)oc2cc(S[C@@H]3O[C@H](CO)[C@H](O)[C@H](O)[C@H]3O)ccc12 [Compound S-4, 4-Methylumbellifer-7-yl 1-thio-β-D-galactopyranoside]	> 1 mM
Cc1cc(=O)oc2cc(S[C@@H]3O[C@H](C)[C@H](O)[C@H](O)[C@H]3O)ccc12 [Compound S-5, 4-Methylumbellifer-7-yl 1-thio-β-D-fucopyranoside]	> 1 mM
Cc1cc(=O)oc2cc(S[C@H]3O[C@H](CO)[C@H](O)[C@H](O)[C@H]3O)ccc12 [Compound S-6, 4-Methylumbellifer-7-yl 1-thio-α-D-galactopyranoside]	> 1 mM

tested on: MCF-7 (breast adenocarcinoma); assay: MTT cell proliferation assay, MCF-7; format: cell-based; details: Homo sapiens, MCF7, 72 h incubation, 95% confidence interval in parentheses
Method: as §1, §2

Compound	IC50
Cc1cc(=O)oc2cc(S)ccc12 [Compound 7-MC, 7-mercapto-4-methylcoumarin, reference compound]	> 1 mM
Cc1cc(=O)oc2cc(S[C@@H]3O[C@H](CO)[C@H](O)[C@H](O)[C@H]3O)ccc12 [Compound S-4, 4-Methylumbellifer-7-yl 1-thio-β-D-galactopyranoside]	> 1 mM
Cc1cc(=O)oc2cc(S[C@@H]3O[C@H](C)[C@H](O)[C@H](O)[C@H]3O)ccc12 [Compound S-5, 4-Methylumbellifer-7-yl 1-thio-β-D-fucopyranoside]	> 1 mM
Cc1cc(=O)oc2cc(S[C@H]3O[C@H](CO)[C@H](O)[C@H](O)[C@H]3O)ccc12 [Compound S-6, 4-Methylumbellifer-7-yl 1-thio-α-D-galactopyranoside]	> 1 mM

tested on: not listed separately; assay: UV-visible absorbance spectroscopy; format: physicochemical; details: DMF, 0.1 mM; 7-MC + DTT 10 mM
Method: Subsequently, the analysis was carried out under two distinct conditions: firstly, in DMF, at a final concentration of 0.1 mM; and secondly, in a mixture PBS:DMF (99:1%), at the same final concentration of 0.1 mM. These two experimental setups provided valuable insights into the spectral characteristics of the compounds in both a pure organic solvent and a solvent system closely resembling physiological conditions. The maxima absorption wavelengths are compiled in Table 3. These bands were attributed to transitions within the benzene and pyrone moieties, considered together as a single chromophore. […] Similarly, 7-MC and S-1 to S-6 compounds also absorb in this UV range (λmax = 328–330 nm). […] In the organic solvent, these values are found to be higher compared to those calculated for 4-MUB and 7-MC. Conversely, in PBS, the extinction coefficients for S-glycosides are lower compared to the parent thiol 7-MC. This highlights the profound impact of glycosylation on absorption properties, as well as the importance of solvent choice.
Both absorbance and fluorescence spectra were measured on a Tecan […] M PLEX 200 Pro plate reader equipped with monochromator allowing a scan from 230 to 1000 nm. All synthesized molecules were initially dissolved in 10 mM DMF and subsequently diluted in freshly prepared PBS (pH = 7.4) to achieve a final concentration of 0.1 mM. The solutions were then transferred to a Corning (Corning, NY, USA) UV-transparent 96-well plate. Absorbance spectra were recorded from 230 to 800 nm. Emission fluorescence spectra were recorded from 320 to 800 nm, under excitation at 280 nm. Excitation fluorescence spectra were recorded from 230 to 380 nm for an emission at 420 nm. All spectra were recorded with a wavelength step size of 2 nm. Data processing was performed with Excel software 2016. Fluorescence spectra are presented as normalized spectra ranging from 0 to 1. The relative quantum yields were calculated according to Equation (1):(1) ΦT=(AR/AT)×(FT/FR)×[…]×ΦR where Φ is the fluorescence quantum yield, A is the absorbance at the excitation wavelength, F is the area under the corrected emission curve, and n is the refractive index of the solvent for the test compound (T) and the reference (R). The 4-MUB value in DMF was used as the reference. The LOD (resp. LOQ) values were determined as the minimal concentration of product S-3 required to yield a fluorescence that was twice greater than (respectively, 5-times that of) the fluorescence noise on a sample containing PBS, using an excitation wavelength of 280 nm and an emission wavelength of 386 nm (Figure S44).

Compound	emax (molar absorption coefficient)
Cc1cc(=O)oc2cc(S)ccc12 [Compound 7-MC, 7-mercapto-4-methylcoumarin, reference compound]	10409,59 cm-1 M-1
Cc1cc(=O)oc2cc(S[C@@H]3O[C@H](CO)[C@H](O)[C@H](O)[C@H]3O)ccc12 [Compound S-4, 4-Methylumbellifer-7-yl 1-thio-β-D-galactopyranoside]	22265,68277 cm-1 M-1
Cc1cc(=O)oc2cc(S[C@@H]3O[C@H](C)[C@H](O)[C@H](O)[C@H]3O)ccc12 [Compound S-5, 4-Methylumbellifer-7-yl 1-thio-β-D-fucopyranoside]	22294,93104 cm-1 M-1
Cc1cc(=O)oc2cc(S[C@H]3O[C@H](CO)[C@H](O)[C@H](O)[C@H]3O)ccc12 [Compound S-6, 4-Methylumbellifer-7-yl 1-thio-α-D-galactopyranoside]	22265,68277 cm-1 M-1

same assay, conditions: DMF, 0.1 mM; 7-MC in presence of 10 mM DTT

Compound	Absorbance ε (molar absorption coefficient)	Absorbance λmax abs
Cc1cc(=O)oc2cc(S)ccc12 [Compound 7-MC, 7-mercapto-4-methylcoumarin, reference compound]	10.4 10^3 M^−1 cm^−1	328 nm
Cc1cc(=O)oc2cc(S[C@@H]3O[C@H](CO)[C@H](O)[C@H](O)[C@H]3O)ccc12 [Compound S-4, 4-Methylumbellifer-7-yl 1-thio-β-D-galactopyranoside]	22.3 10^3 M^−1 cm^−1	330 nm
Cc1cc(=O)oc2cc(S[C@@H]3O[C@H](C)[C@H](O)[C@H](O)[C@H]3O)ccc12 [Compound S-5, 4-Methylumbellifer-7-yl 1-thio-β-D-fucopyranoside]	22.3 10^3 M^−1 cm^−1	330 nm
Cc1cc(=O)oc2cc(S[C@H]3O[C@H](CO)[C@H](O)[C@H](O)[C@H]3O)ccc12 [Compound S-6, 4-Methylumbellifer-7-yl 1-thio-α-D-galactopyranoside]	22.3 10^3 M^−1 cm^−1	330 nm

same assay, conditions: PBS 1x (pH = 7.4), 0.1 mM; 7-MC + DTT 10 mM

Compound	emax (molar absorption coefficient)
Cc1cc(=O)oc2cc(S)ccc12 [Compound 7-MC, 7-mercapto-4-methylcoumarin, reference compound]	28929,88854 cm-1 M-1
Cc1cc(=O)oc2cc(S[C@@H]3O[C@H](CO)[C@H](O)[C@H](O)[C@H]3O)ccc12 [Compound S-4, 4-Methylumbellifer-7-yl 1-thio-β-D-galactopyranoside]	18357,93367 cm-1 M-1
Cc1cc(=O)oc2cc(S[C@H]3O[C@H](CO)[C@H](O)[C@H](O)[C@H]3O)ccc12 [Compound S-6, 4-Methylumbellifer-7-yl 1-thio-α-D-galactopyranoside]	19811,80752 cm-1 M-1

same assay, conditions: PBS (PBS:DMF 99:1, pH 7.4), 0.1 mM; 7-MC in presence of 10 mM DTT

Compound	Absorbance ε (molar absorption coefficient)	Absorbance λmax abs
Cc1cc(=O)oc2cc(S)ccc12 [Compound 7-MC, 7-mercapto-4-methylcoumarin, reference compound]	28.9 10^3 M^−1 cm^−1	368 nm
Cc1cc(=O)oc2cc(S[C@@H]3O[C@H](CO)[C@H](O)[C@H](O)[C@H]3O)ccc12 [Compound S-4, 4-Methylumbellifer-7-yl 1-thio-β-D-galactopyranoside]	18.4 10^3 M^−1 cm^−1	326 nm
Cc1cc(=O)oc2cc(S[C@@H]3O[C@H](C)[C@H](O)[C@H](O)[C@H]3O)ccc12 [Compound S-5, 4-Methylumbellifer-7-yl 1-thio-β-D-fucopyranoside]	10.4 10^3 M^−1 cm^−1	326 nm
Cc1cc(=O)oc2cc(S[C@H]3O[C@H](CO)[C@H](O)[C@H](O)[C@H]3O)ccc12 [Compound S-6, 4-Methylumbellifer-7-yl 1-thio-α-D-galactopyranoside]	19.8 10^3 M^−1 cm^−1	326 nm

Source: article PMC10974290, “Biocatalytic Synthesis of Coumarin S-Glycosides: Towards Non-Cytotoxic Probes for Biomedical Imaging and Sensing” (Molecules, 2024)
